# Data published in PubChem BioAssay AID179 (DTP/NCI, 2004).
# pEC50, pIC50: −log10 of the molar value. Active and inactive are the calls of the source.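 How the source made its calls: active means compounds giving half or more protection of infected cells from virus-caused growth loss, again on retest; inactive means the rest.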 Where a SMILES comes first, the peptide text is derived from it.
# System: CEM cells HIV-1 protection, formazan growth assay
# Experiment: NCI AIDS Antiviral Assay
# Conditions: for pIC50: measured here: growth of uninfected CEM cells
# Outline: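 Screen of anti-HIV-1 activity in human CEM cells using a formazan-based growth measurement at five drug concentrations. Hits with 50% or greater protection were repeated, and confirmation required reproducible complete protection.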
Compound,pEC50,pIC50,outcome
O=C(Nc1cc2c(cc1OCc1ccccc1)N(S(=O)(=O)c1ccccc1)[C@@H]1c3ccccc3OC[C@H]21)c1ccccc1,< 3.70,< 3.70,
COC(=O)[C@@]1(C)CCC[C@]2(C(=O)O)C3Cc4occc4[C@H](C)[C@@H]3CCC21 (stereo not given in full),< 3.70,3.98,
COc1c2ccoc2cc2oc(=O)ccc12,< 4.23,< 4.23,
COc1ccc(C[C@H]2COC(=O)[C@@H]2Cc2cccc(Br)c2)cc1OC,< 3.70,4.50,
Cc1cc(C)nc(NS(=O)(=O)c2ccc(Nc3c4ccc(Cl)cc4nc4c(C(=O)Nc5ccc(S(=O)(=O)N=C(N)N)cc5)cccc34)cc2)n1,< 4.31,< 4.31,
c1ccc(N=c2nc(Nc3ccccc3)ss2)cc1,< 3.70,4.51,
CCOC(=O)Oc1ccc2[nH]c3c(C)cc(N)c(C)c3c2c1,< 4.03,4.40,
CCOP(=O)(OCC)/C(C#N)=C/c1nc[nH]c1C,< 3.70,< 3.70,
CC1(C)COC(C23C4C5C2C2C3C4C52I)=N1 (stereo not given),< 4.10,< 4.10,
c1ccc2[nH]c(C3=NCCN3)nc2c1,< 4.27,< 4.27,
COc1cc2cc3c4cc(OC)c(OC)cc4cc(C)[n+]3cc2cc1OC,,,inactive
Cc1ccc2c(c1)C(C1Cc3c(C)cccc3C1=O)OC2=O (stereo not given),< 3.70,< 3.70,
O=C(O)/C(=C/c1c(O)ccc2ccccc12)c1csc(-c2nc(/C(=C\c3c(O)ccc4ccccc34)C(=O)O)cs2)n1,< 4.36,4.63,
Cc1ccc2c(c1)P1c3cc(C)ccc3SP1S2 (stereo not given),< 4.91,< 4.91,
CCCCN(CC)C(=O)C(=O)Cc1nc2ccc(C(=O)c3ccccc3)cc2[nH]c1=O,< 4.76,< 4.76,
COc1ccc(C(=O)C(C(=O)C(=O)NCCCNC(=O)C(=O)C(C(=O)c2ccc(OC)cc2)c2ccc(OC)cc2)c2ccc(OC)cc2)cc1 (stereo not given),,,inactive
CC(=O)C1CCC2C1(C)CC1OC13C21C=CC2(CC(O)CCC23C)C2C(=O)OC(=O)C21 (stereo not given),< 3.52,< 3.52,
CCS/C(SC)=C(/c1ccccc1)[P+](c1ccccc1)(c1ccccc1)c1ccccc1,< 4.70,6.45,
Brc1ccc(N2N=NC3C4CC(C5CCCC54)C32)cc1 (stereo not given),< 5.25,< 5.25,
Cn1c(=O)c(S(C)=O)c(O)c2ccccc21 (stereo not given),< 3.70,< 3.70,
CN(C)c1ccc(-c2c(C#N)c(S)n(NS(=O)(=O)c3ccccc3)c(=O)c2C#N)cc1,< 3.70,5.08,

Compound,pEC50,pIC50,outcome
CC(=Nc1cccc(Cl)c1)c1ccncc1,,,inactive
CCOC(=O)c1[nH]c(CN(C)Cc2[nH]c(C(=O)OCC)c(C)c2C(=O)OCc2ccccc2)c(C(=O)OCc2ccccc2)c1C,< 5.22,< 5.22,
Cc1cc2nc3ccccc3n2c2nc(N)ccc12,< 3.70,5.18,
Cc1cn(C2CC(N(O)Cc3ccccc3)C(CO)O2)c(=O)[nH]c1=O (stereo not given),< 3.70,< 3.70,
COC(=O)C1C(=O)C(C(=O)OC)C2(C)C(C(=O)OC)C(=O)C(C(=O)OC)C12 (stereo not given),< 3.33,< 3.33,
Cc1cc(=O)[nH]c(NNC(C#N)c2ccco2)n1 (stereo not given),< 3.42,< 3.42,
COc1cc(OC)c2c(c1)OC(=O)C(C(C)=O)C2 (stereo not given),< 3.70,< 3.70,
CC(=O)OC(C(=O)NNC(=O)OC(C)(C)C)c1ccccc1 (stereo not given),< 3.70,< 3.70,
CN(C)c1nc(=NCc2cccs2)ss1,< 3.70,4.76,
COc1ccc(/C=C(/C(C)=O)C(=O)c2ccccc2)cc1,< 3.89,4.42,
CCc1cccc(C)c1NC(=O)CCc1nnc(SC)o1,< 3.79,< 3.79,
Cc1[nH]c(=O)[nH]c1C(=O)c1ccc(-n2ccnc2)cc1,< 4.85,< 4.85,
Cc1ccc(Nc2[nH]c(=O)[nH]c(=O)c2C)cc1Cl,< 3.70,3.80,
Nc1c(Cl)ncnc1NCCO,< 3.70,< 3.70,
Cn1c(=O)oc2cc(C(O)CN3CCN(Cc4ccccn4)CC3)c(Cl)cc21 (stereo not given),< 3.70,3.71,
N/N=C(\N)SCc1ccc(N=C=S)cc1,,,inactive
CCOC(=O)/C(=C\c1ccc(Cl)cc1)P(=O)(OCC)OCC,< 4.82,4.85,
CC(C)(C)N/N=C(/Cc1nc2c3c(ccc2[nH]c1=O)C(=O)c1ccccc1C3=O)C(=O)NC1=C(Cl)C(=O)c2ccccc2C1=O,< 4.94,< 4.94,
CC(C)CC(NC(=O)C(Cc1ccc(O)cc1)NC(=O)C(CO)NC(=O)C(C)NC(=O)C(CO)NC(=O)C(CCC(N)=O)NC(=O)C(NC(=O)C(N)CCC(=O)O)C(C)C)C(=O)NC(CCCN=C(N)N)C(=O)NC(CCCCN)C(=O)O (stereo not given) (H-EVQSASYLRK-OH; configuration not given here),,,inactive
O=[N+]([O-])c1ccccc1-c1nc2nc(N3CCOCC3)nc(N3CCOCC3)n2n1,< 4.11,4.28,
O=C1[C@@H]2C[C@@H](O)CN2C(=O)c2ccccc2N1CCCO,,,inactive

Compound,pEC50,pIC50,outcome
O=C1c2ccccc2C(=O)N1CCCSCC(CO)SCCCN1C(=O)c2ccccc2C1=O (stereo not given),< 3.70,< 3.70,
CCOC(=O)/C(=C/c1ccc[nH]1)P(=O)(OCC)OCC,< 3.36,< 3.36,
CCOC(=O)C(O)(NC(=O)NC(O)(C(=O)OCC)C(F)(F)F)C(F)(F)F (stereo not given),< 3.70,< 3.70,
Clc1ccc(Nc2nn3c(CCCCCCCCc4nnc5sc(Nc6ccc(Cl)cc6)nn45)nnc3s2)cc1,< 3.70,3.95,
c1ccc(C2(c3cc4ccccc4[nH]3)OCCO2)nc1,< 3.70,< 3.70,
Cc1nc2ccccc2c(=O)n1NC(=O)c1ccc(N)cc1,< 3.70,< 3.70,
Cc1c(C#N)c2n(c1C)CCCC(=O)N2,< 3.66,< 3.66,
CSc1ccc(NC(=O)Nc2cc(C)cc(C)n2)cc1,< 3.70,< 3.70,
COC(=O)c1ccn2c(N(C)C)[n+]3ccc(C(=O)OC)cc3c2c1,< 4.00,< 4.00,
CCCCCCCCCCCCCCCC(=O)OCC1OC(OC)C(NC(=O)N(CCCl)N=O)C(O)C1O (stereo not given),< 4.48,5.16,
Cc1cccc(/C=C2\CCCCCC2=O)c1,< 3.70,4.27,
C(=N\NC1=NCCCN1)/c1ccc(-c2cn3cc(/C=N/NC4=NCCCN4)ccc3n2)cc1,< 4.00,4.73,
CCc1cc(=O)oc2c3c(cc(OC)c12)O[C@H](C)[C@@H](C)C3=O,< 3.70,4.50,
CC(O)C1OC(n2cnc3c(=O)[nH]cnc32)C(O)C1O (stereo not given),< 3.05,< 3.05,
CSC1=C(C(=O)Nc2ccc(C)cc2)C(N)=NC1=O,< 4.00,< 4.00,
CCOC(=O)C1=CC(C(=O)OCC)=C2C=CC=C3C=CC=C1N32,< 4.24,4.89,
c1ccc(P(c2ccccc2)c2ccc(P(c3ccccc3)c3ccccc3)nn2)cc1,< 5.07,< 5.07,
CSC(SC)=C1C(=O)NN=C1C,< 3.70,< 3.70,
CSCCCNC(=O)c1csc(-c2csc(CCNC(=O)CNC(=O)CNC(=O)CNC(=O)OC(C)(C)C)n2)n1,< 3.39,< 3.39,
Cc1cccc(NC(=S)N/N=C(/c2ccccc2)c2ccccn2)c1,< 6.70,7.03,
Cc1ncc([N+](=O)[O-])n1CCNC(=O)CCn1ccnc1[N+](=O)[O-],< 3.70,< 3.70,

Compound,pEC50,pIC50,outcome
COc1cc(O)c(C(=O)c2ccccc2)cc1S(=O)(=O)O,< 3.11,< 3.11,
C(=Nc1cnc2ccccc2c1)c1ccccn1,< 3.39,3.99,
CCCCCCCCN(/N=C/c1c2c(O)c3c(O)c(C)c4c(c3c1O)C(=O)C(C)(O/C=C/C(OC)C(C)C(OC(C)=O)C(C)C(O)C(C)C(O)C(C)/C=C/C=C(C)C(=O)N2)O4)C1OC(COC(=O)c2ccccc2)C(OC(=O)c2ccccc2)C1OC(=O)c1ccccc1 (stereo not given),< 3.70,4.98,
c1ccc2c(c1)OCCOCCOc1ccccc1OCCO2,< 3.53,4.13,
O=c1sc2ncccc2n1-c1ccc([N+](=O)[O-])cn1,< 4.04,< 4.04,
CCc1c(-c2ccc(OC)cc2)oc(OC)c(C)c1=O,< 3.70,4.39,
CC1CCc2c(c(CC3CC(=O)NC(=O)C3)nn2-c2ccccc2)C1 (stereo not given),< 3.70,< 3.70,
CC1CN2C(=O)[C@@H](OC(=O)Nc3cc([N+](=O)[O-])cc([N+](=O)[O-])c3)[C@H]3CC[C@@H]1[C@]32C (stereo not given in full),< 4.00,4.26,
Cc1cc(C)nc(NC(=O)Nc2ccccc2)c1,< 3.70,< 3.70,
CN(C)CCC(/C=C/c1ccccc1)=N\Nc1ccccc1,,,inactive
C=C1C(=O)O[C@H]2C1C[C@@H](OC(C)=O)/C(C)=C/CC[C@@]1(C)O[C@H]21 (stereo not given in full),< 3.70,5.92,
CC1(C)CN(C(=O)OCc2ccccc2)[C@@H]2N1C(=O)[C@@]2(C)OCCCO[C@@]1(C)C(=O)N2[C@@H]1N(C(=O)OCc1ccccc1)CC2(C)C,< 3.70,4.57,
CN(C)N1C(=O)CC2(CCN(CCCC(=O)c3ccc(F)cc3)CC2)C1=O,< 3.70,< 3.70,
CS(=O)(=O)c1ccc(N=C/C=C/Nc2ccc(S(C)(=O)=O)cc2)cc1,< 3.70,< 3.70,
CC1CCN(c2nnc(Cl)cc2C(=O)c2ccccc2)CC1,< 3.70,4.28,
CO/N=C1\CC(n2cc(C)c(=O)[nH]c2=O)OC1CO (stereo not given),< 3.70,< 3.70,
O=S(=O)(O)C(O)C(O)S(=O)(=O)O (stereo not given),< 3.70,4.10,
CC1C(=O)OC2CCC3(C)C(=O)OC4OC5(c6ccoc6)CC1(O)C2(C)C43O5 (stereo not given),< 3.70,< 3.70,
CN1CCN(/C(N)=C(\C#N)C(=O)Nc2ccc(Cl)cc2)CC1,< 3.70,< 4.00,
COc1cc2c3c(c1OC)C(=O)C=C3N(S(=O)(=O)c1ccc(C)cc1)CC2,,,inactive
COc1c2cc([N+](=O)[O-])cc1CNC(=O)CN1CCOCCOCCN(CCOCCOCC1)CC(=O)NC2,< 4.00,< 4.00,
